ChEMBL document CHEMBL4346764, “Design, synthesis, and evaluation of N-(4-(4-phenyl piperazin-1-yl)butyl)-4-(thiophen-3-yl)benzamides as selective dopamine D3 receptor ligands” (Bioorg Med Chem Lett, 2019)

How the values were obtained:
[1] = AUC in Sprague-Dawley rat at 1 mg/kg, iv by LC/MS/MS analysis; format: ADME, organism-based; conditions: in vivo
[2] = Volume of distribution at steady state in Sprague-Dawley rat at 1 mg/kg, iv by LC/MS/MS analysis; format: ADME, organism-based; conditions: in vivo, read-out: Vdss

SMILES | AUC [1] [ng·h/mL] | Vd [2] [L/kg]
O=C(NCCCCN1CCN(c2cc(Cl)cc(Cl)c2)CC1)c1ccc(-c2ccsc2)cc1 | 210 | 55.7
N#Cc1cccc(N2CCN(CCCCNC(=O)c3ccc(-c4ccsc4)cc3)CC2)c1 | 220 | 28.6
